# Assay results as given in patent US9126056B2, “Method of promoting hair growth” (ENERGENESIS BIOMEDICAL CO., LTD., priority 2010, dated 2015).
# System: human dermal papilla cells
# Assay: Human dermal papilla cell proliferation test
# Type: cell-based
# Details: 0.002% in culture media; cell count at 12-60 hour; FIG. 1
# Description: The promotion of cell proliferation by adenine was evaluated using human dermal papilla cells, compared with adenosine, and minoxidil under the following conditions, the results are shown in FIG. 1.
# Determination of the proliferation of human dermal papilla cells in the culture media containing adenine, adenosine, and minoxidil. Supplements: 0.002% of adenine, adenosine, minoxidil.
# • (1) Prepare 0.002% adenine, adenosine, minoxidil containing testing media using the hair follicle dermal papilla cell media (cat. No. 611-500, Cell applications, Inc). • (2) Seed the isolated human dermal papilla cells in 96-well culture plate with a density of 5,000 cells per well. Add 0.1 mL prepared culture media into individual well. • (3) At 12, 24, 36, 48 and 60 hour after cell seeding, visually count the total cell number using hemacytometer. • (4) Evaluate the result.
structure (smiles),measurement,value
Nc1ncnc2nc[nH]c12 [adenine],proliferation of human dermal papilla cells (in words),promotes the proliferation
